Test results reported in patent US7763267B2, “Versatile high load concentrate compositions for control of ecto- parasites” (Wyeth LLC, priority 2005, dated 2010).

Tested on: biting lice
Assay: Effect of metaflumizone body spray on biting lice of sheep
Type: in vivo
Details: 10 mg/kg as body spray (1500 ml/animal), vs untreated control lice/animal
Method: 12.59 grams of metaflumizone is added to dimethyl isosorbide using mild heating (approximately 40° C.). To this solution is added 109.92 grams Cremophor® EL (polyethoxylated castor oil, sold by Basf Aktiengesellschaft), with stirring, followed by q.s. 200 ml 1-methoxy-2-propyl acetate The resultant solution is stored until ready for use, whereupon it can be diluted with water for use as a spray (17 ml of concentrate diluted to 3500 ml with water), or with water for use as a feed/water additive (in approximately the same ratio).
This formulation was diluted with water to a metaflumizone concentration of 10 mg/kg bodyweight, and applied to sheep at 1500 ml/animal to test the effect of metaflumizone on biting lice

Measured: % Efficacy

N#Cc1ccc(CC(=NNC(=O)Nc2ccc(OC(F)(F)F)cc2)c2cccc(C(F)(F)F)c2)cc1 [metaflumizone, (E Z)-2-[2-(4-cyanophenyl)-1-[3-(trifluoromethyl)phenyl]ethylidene]-N-[4-(trifluoromethoxy)phenyl]hydrazinecarboxamide]
100%: 7 days after treatment | 14 days after treatment | 21 days after treatment | 28 days after treatment
